The values below come from patent publication US9744148B2, “Kallikrein 7 inhibitors” (SIXERA PHARMA AB, priority 2014, dated 2017).

Active human KLK7 (SCCE), sequence (P49862 30-253): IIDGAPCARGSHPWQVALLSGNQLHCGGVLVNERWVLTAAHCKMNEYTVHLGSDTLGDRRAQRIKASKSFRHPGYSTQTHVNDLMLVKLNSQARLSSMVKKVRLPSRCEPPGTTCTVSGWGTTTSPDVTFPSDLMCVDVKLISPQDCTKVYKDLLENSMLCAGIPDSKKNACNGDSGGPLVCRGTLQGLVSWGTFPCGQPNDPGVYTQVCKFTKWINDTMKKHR

This test has as its target Active human KLK7 (SCCE) (Homo sapiens (Human), UniProt P49862). Description: KLK7 Inhibitor Test. The test is classed as biochemical. As to conditions: substrate MeO-Suc-Arg-Pro-Tyr-pNA, pH 7.2, 37° C., absorbance at 405 nm. The protocol: KLK7 Inhibitor Test Substrate:(MeO-Suc-[…]), acetate salt, Peptide international, lot #906841, previously named S-2586 Enzyme: […] Buffer: 10 mM NaPhospate, 0.5 M NaCl, pH 7.2 […] 10 μl of substance in DMSO was added to wells giving final concentrations of 20 μ[…], and 0.15625 μM. 40 μl of active KLK7 (SCCE) (diluted to 12.5 μg/ml in activity buffer) was added all wells except blank to which activity buffer was added. […] The mean value V of each sample was calculated (n=2 for the substances and n=4 for the control). From the values of V the % of total activity was calculated as (Vinhibitor/Vcontrol (no inhibitor))×100. Plotting and calculation was then done in originPro. % of total activity (y) was plotted vs. log [inhibitor] (log x) and a function of dose response y=A1+(A2-A1)/(1+10^((LOG(x0)-x)*p)) where A1=Bottom platue, A2=Top platue, x0=EC50 and p=Hill slope was fitted to the curve. […] The IC50 values were used to identify KLK7 inhibitors according to the invention.
For orientation: IC50 means the concentration at which inhibition is half-maximal. A lower IC50 goes with greater potency in that assay. Consider `Cc1cc(NC(=O)C(C)OC(=O)Cc2ccc(Cl)cc2)no1` (stereo not drawn) [Compound 1, [1-methyl-2-[(5-methylisoxazol-3-yl)amino]-2-oxo-ethyl] 2-(4-chlorophenyl)acetate], for which the IC50 was 39 nM. That is a double-digit nanomolar value.

For `CC(OC(=O)Cc1ccc(Cl)cc1)C(=O)Nc1ccc(F)cc1` (stereo not drawn) [Compound 2], the IC50 worked out at 70 nM.

As for `CCC(OC(=O)Cc1ccc(Cl)cc1)C(=O)Nc1cc(C)on1` (stereo not drawn) [Compound 3, 1-[(5-methylisoxazol-3-yl)carbamoyl]propyl 2-(4-chlorophenyl)acetate], the IC50 came to 80 nM.

Turning to `COc1ccc(NC(=O)C(C)OC(=O)Cc2ccc(Cl)cc2)cc1` (stereo not drawn) [Compound 4, [2-(4-methoxyanilino)-1-methyl-2-oxo-ethyl] 2-(4-chlorophenyl)acetate], the IC50 is 80 nM.

In turn, `CC(OC(=O)Cc1ccc(Cl)cc1)C(=O)Nc1ccccc1` (stereo not drawn) [Compound 5] yielded an IC50 of 90 nM.

Regarding `CCC(OC(=O)Cc1ccc(Cl)cc1)C(=O)Nc1ccc(OC)cc1` (stereo not drawn) [Compound 6, 1-[(4-methoxyphenyl)carbamoyl]propyl 2-(4-chlorophenyl)acetate], the half-inhibitory concentration (IC50) stood at 120 nM.

The compound `COc1ccc(CC(=O)OC(C)C(=O)Nc2cc(C)on2)cc1` (stereo not drawn) [Compound 7, [1-methyl-2-[(5-methylisoxazol-3-yl)amino]-2-oxo-ethyl] 2-(4-methoxyphenyl) acetate] had an IC50 of 130 nM.

For the compound `CCC(OC(=O)Cc1ccc(Cl)cc1)C(=O)Nc1ccc(F)cc1` (stereo not drawn) [Compound 8, 1-[(4-fluorophenyl)carbamoyl]propyl 2-(4-chlorophenyl)acetate], the IC50 was determined as 140 nM. This IC50 and that of the compound before are within 1.5-fold of each other.

For the compound `CCC(OC(=O)Cc1ccc(Cl)cc1)C(=O)Nc1ccccc1` (stereo not drawn) [Compound 9, 1-(phenylcarbamoyl)propyl 2-(4-chlorophenyl)acetate], it took 150 nM to reach half-maximal inhibition (IC50).

Consider `CCC(OC(=O)CCC1CCCC1)C(=O)Nc1ccc(OC)cc1` (stereo not drawn) [Compound 11, 1-[(4-methoxyphenyl)carbamoyl]propyl 3-cyclopentylpropanoate], for which the IC50 amounted to 150 nM.

In turn, `CCC(OC(=O)Cc1ccc(OC)cc1)C(=O)Nc1cc(C)on1` (stereo not drawn) [Compound 12, 1-[(5-methylisoxazol-3-yl)carbamoyl]propyl 2-(4-methoxyphenyl) acetate] registered a half-maximal inhibitory concentration (IC50) of 150 nM.

`COc1ccc(NC(=O)C(OC(=O)Cc2ccc(Cl)cc2)c2ccccc2)cc1` (stereo not drawn) [Compound 13, [2-(4-methoxyanilino)-2-oxo-1-phenyl-ethyl] 2-(4-chlorophenyl)acetate]: 170 nM corresponded to half-maximal inhibition (IC50).

As to `Cc1cc(NC(=O)C(C)OC(=O)CCC2CCCC2)no1` (stereo not drawn) [Compound 14, [1-methyl-2-[(5-methylisoxazol-3-yl)amino]-2-oxo-ethyl] 3-cyclopentylpropanoate], the half-maximal inhibitory concentration (IC50) was determined as 180 nM. The IC50 values of the last two compounds are within 1.5-fold of each other.

In turn, `COc1ccc(CC(=O)OC(C)C(=O)Nc2ccc(OC)cc2)cc1` (stereo not drawn) [Compound 15, [2-(4-methoxyanilino)-1-methyl-2-oxo-ethyl] 2-(4-methoxyphenyl)acetate] had a 50% inhibitory concentration (IC50) of 180 nM.

Compound `CCC(OC(=O)CCC1CCCC1)C(=O)Nc1cc(C)on1` (stereo not drawn) [Compound 16, 1-[(5-methylisoxazol-3-yl)carbamoyl]propyl 3-cyclopentylpropanoate] displayed a half-inhibitory concentration (IC50) of 190 nM.

`Cc1cc(NC(=O)C(OC(=O)Cc2ccc(Cl)cc2)c2ccccc2)no1` (stereo not drawn) [Compound 17, [2-[(5-methylisoxazol-3-yl)amino]-2-oxo-1-phenyl-ethyl] 2-(4-chlorophenyl)acetate]: the IC50 worked out at 190 nM.

Compound `CCCC(OC(=O)C(c1ccccc1)c1ccccc1)C(=O)Nc1cc(C)on1` (stereo not drawn) [Compound 18] gave a half-maximal inhibitory concentration (IC50) of 220 nM. This IC50 and that of the compound before are within 1.5-fold of each other.

Take `COc1ccc(NC(=O)C(OC(=O)CCC2CCCC2)c2ccccc2)cc1` (stereo not drawn) [Compound 19, [2-(4-methoxyanilino)-2-oxo-1-phenyl-ethyl] 3-cyclopentylpropanoate]: the IC50 amounted to 230 nM.

In the case of `Cc1cc(NC(=O)C(OC(=O)CCC2CCCC2)c2ccccc2)no1` (stereo not drawn) [Compound 20, [2-[(5-methylisoxazol-3-yl)amino]-2-oxo-1-phenyl-ethyl] 3-cyclopentylpropanoate], inhibition was half-maximal at 230 nM (IC50). In other words, the sub-micromolar range.

The compound `COc1ccc(CC(=O)OC(C)C(=O)Nc2ccccc2)cc1` (stereo not drawn) [Compound 21] came in with a 50% inhibitory concentration (IC50) of 260 nM.

Turning to `CC(OC(=O)CCC1CCCC1)C(=O)Nc1ccc(F)cc1` (stereo not drawn) [Compound 22], the half-maximal inhibitory concentration (IC50) was found to be 260 nM.

With `CCC(OC(=O)Cc1ccc(OC)cc1)C(=O)Nc1cc(C)on1` (stereo not drawn) [Compound 23, 1-[(5-methylisoxazol-3-yl)carbamoyl]propyl 2-(4-methoxyphenyl)acetate], the midpoint of inhibition, the IC50, lay at 270 nM.

In turn, `CCC(OC(=O)Cc1ccc(OC)cc1)C(=O)Nc1ccc(OC)cc1` (stereo not drawn) [Compound 24, 1-[(4-methoxyphenyl)carbamoyl]propyl 2-(4-methoxyphenyl)acetate] displayed a half-maximal inhibitory concentration (IC50) of 280 nM. This IC50 and that of the compound before are within 1.5-fold of each other.

The compound `CCC(OC(=O)CCC1CCCC1)C(=O)Nc1ccc(F)cc1` (stereo not drawn) [Compound 25, 1-[(4-fluorophenyl)carbamoyl]propyl 3-cyclopentylpropanoate] returned an IC50 of 310 nM. The IC50 values of the last two compounds are within 1.5-fold of each other.

`CCC(OC(=O)Cc1ccc2c(c1)OCO2)C(=O)Nc1cc(C)on1` (stereo not drawn) [Compound 26, 1-[(5-methylisoxazol-3-yl)carbamoyl]propyl 2-(1,3-benzodioxol-5-yl)acetate] yielded an IC50 of 320 nM.

`CCCCC(OC(=O)C(c1ccccc1)c1ccccc1)C(=O)Nc1cc(C)on1` (stereo not drawn) [Compound 27] returned an IC50 of 330 nM.

For the compound `CC[C@H](OC(=O)C(c1ccccc1)c1ccccc1)C(=O)Nc1cc(C)on1` [Compound 28], 340 nM corresponded to half-maximal inhibition (IC50).

On to `O=C(Cc1ccc(Cl)cc1)OC(C(=O)Nc1ccc(F)cc1)c1ccccc1` (stereo not drawn) [Compound 29], for which the midpoint of inhibition, the IC50, lay at 350 nM.

The compound `CCC(OC(=O)Cc1ccc(OC)cc1)C(=O)Nc1ccc(F)cc1` (stereo not drawn) [Compound 30, 1-[(4-fluorophenyl)carbamoyl]propyl 2-(4-methoxyphenyl)acetate] had an IC50 of 360 nM.

Take `CC(OC(=O)CCC1CCCC1)C(=O)Nc1ccccc1` (stereo not drawn) [Compound 31, (2-anilino-1-methyl-2-oxo-ethyl) 3-cyclopentylpropanoate]: the concentration for half-maximal inhibition (IC50) turned out to be 370 nM.

`O=C(Cc1ccc(Cl)cc1)OC(C(=O)Nc1ccccc1)c1ccccc1` (stereo not drawn) [Compound 32, (2-anilino-2-oxo-1-phenyl-ethyl) 2-(4-chlorophenyl)acetate] displayed an IC50 of 380 nM.

On to `CCC(OC(=O)C(c1ccccc1)c1ccccc1)C(=O)Nc1cc(C)on1` (stereo not drawn) [Compound 33], for which the 50% inhibitory concentration (IC50) worked out at 390 nM. The IC50 values of the last two compounds are within 1.5-fold of each other.

Regarding `CCC(OC(=O)Cc1ccc(OC)cc1)C(=O)Nc1ccccc1` (stereo not drawn) [Compound 34, 1-(phenylcarbamoyl)propyl 2-(4-methoxyphenyl)acetate], it took 390 nM to reach half-maximal inhibition (IC50).

Compound `COc1ccc(CC(=O)OC(C(=O)Nc2ccc(OC)cc2)c2ccccc2)cc1` (stereo not drawn) [Compound 35, [2-(4-methoxyanilino)-2-oxo-1-phenyl-ethyl] 2-(4-methoxyphenyl)acetate] yielded an IC50 of 410 nM.

`COc1ccc(CC(=O)OC(C(=O)Nc2cc(C)on2)c2ccccc2)cc1` (stereo not drawn) [Compound 36, [2-[(5-methylisoxazol-3-yl)amino]-2-oxo-1-phenyl-ethyl] 2-(4-methoxyphenyl)acetate] returned an IC50 of 430 nM.

With `O=C(CCC1CCCC1)OC(C(=O)NCc1ccccc1)c1ccccc1` (stereo not drawn) [Compound 37, [2-(benzylamino)-2-oxo-1-phenyl-ethyl] 3-cyclopentylpropanoate], inhibition was half-maximal at 460 nM (IC50).

The compound `COCCC(OC(=O)C(c1ccccc1)c1ccccc1)C(=O)Nc1cc(C)on1` (stereo not drawn) [Compound 38] showed an IC50 of 470 nM.

`CCC(OC(=O)Cc1ccc(Cl)c(Cl)c1)C(=O)Nc1cc(C)on1` (stereo not drawn) [Compound 39, 1-[(5-methylisoxazol-3-yl)carbamoyl]propyl 2-(3,4-dichlorophenyl)acetate] displayed an IC50 of 480 nM. The IC50 values of the last two compounds are within 1.5-fold of each other.

Compound `COc1ccc(NC(=O)COC(=O)Cc2ccc(Cl)cc2)cc1` [Compound 40] gave an IC50 of 550 nM.

`CCC(OC(=O)Cc1ccc(OC)c(OC)c1)C(=O)Nc1cc(C)on1` (stereo not drawn) [Compound 41, 1-[(5-methylisoxazol-3-yl)carbamoyl]propyl 2-(3,4-dimethoxyphenyl)acetate]: the IC50 stood at 580 nM.

`COc1ccc(CC(=O)OC(C)C(=O)Nc2ccc(F)cc2)cc1` (stereo not drawn) [Compound 42] returned an IC50 of 590 nM.

Turning to `CCC(OC(=O)C(c1ccccc1)c1ccccc1)C(=O)Nc1ccc(OC)cc1` (stereo not drawn) [Compound 43, 1-[(4-methoxyphenyl)carbamoyl]propyl 2,2-diphenylacetate], the midpoint of inhibition, the IC50, lay at 630 nM. This IC50 and that of the compound before are within 1.5-fold of each other.

As for `CCC(OC(=O)C(c1ccccc1)c1ccccc1)C(=O)Nc1ccc(F)cc1` (stereo not drawn) [Compound 44, 1-[(4-fluorophenyl)carbamoyl]propyl 2,2-diphenylacetate], it took 640 nM to reach half-maximal inhibition (IC50).

In turn, `CCC(OC(=O)C(NC(=O)c1ccccc1)c1ccccc1)C(=O)Nc1cc(C)on1` (stereo not drawn) [Compound 45] registered an IC50 of 660 nM.

Compound `COc1ccc(NC(=O)COC(=O)CCC2CCCC2)cc1` [Compound 46] yielded an IC50 of 690 nM.

`Cc1cc(NC(=O)C(C)OC(=O)C(c2ccccc2)c2ccccc2)no1` (stereo not drawn) [Compound 47, [1-methyl-2-[(5-methylisoxazol-3-yl)amino]-2-oxo-ethyl] 2,2-diphenylacetate] had a concentration for half-maximal inhibition (IC50) of 740 nM.

In the case of `CCC(OC(=O)C(c1ccccc1)c1ccccc1)C(=O)Nc1ccccc1` (stereo not drawn) [Compound 48, 1-(phenylcarbamoyl)propyl 2,2-diphenylacetate], the IC50 amounted to 760 nM.

Take `Cc1cc(NC(=O)C(OC(=O)C(NC(=O)c2ccccc2)c2ccccc2)c2ccccc2)no1` (stereo not drawn) [Compound 49, [2-[(5-methylisoxazol-3-yl)amino]-2-oxo-1-phenyl-ethyl] 2-benzamido-2-phenyl-acetate]: the IC50 came to 780 nM. The IC50 values of the last two compounds are within 1.5-fold of each other.
